Laboratory results: ChEMBL document CHEMBL1201862, “PubChem BioAssay data set” (2004)
Active and inactive are the calls of the source.

Tests used:
[1] = molecular target: Dual specificity protein kinase CLK1 (Homo sapiens, UniProt P49759); assay: CLK1 kinase inhibitors, off-target check, dose response, selectivity assay for Dyrk1A inhibitor project, biochemical, cherry-picked samples (AID 588811)
[2] = molecular target: Dual specificity tyrosine-phosphorylation-regulated kinase 1A (Rattus norvegicus, UniProt Q63470); type: biochemical, Homo sapiens
[3] = molecular target: Photoreceptor-specific nuclear receptor (Homo sapiens, UniProt Q9Y5X4); type: functional, cell-based;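 also: CHO-S cells with Gal4-NCOR and VP16-NR2E3 two-hybrid luciferase reporter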
[4] = molecular target: Cytochrome P450 2C19 (Homo sapiens, UniProt P33261); assay: Cytochrome panel assay with activity outcomes. Panel member name: p450-cyp2c19 Compounds with AC50 equal or less than 10 uM are considered active; type: functional
[5] = molecular target: Cytochrome P450 2D6 (Homo sapiens, UniProt P10635);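 also: CYP2D6 member of a cytochrome P450 panel assay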
[6] = molecular target: Voltage-gated inwardly rectifying potassium channel KCNH2 (Homo sapiens, UniProt Q12809); settings: Potency;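 also: confirmatory quantitative high-throughput screen measuring inhibition of hERG channel activity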
[7] = molecular target: Beta-2 adrenergic receptor (Homo sapiens, UniProt P07550); assay: beta2AR agonists driving receptor internalization, dose response, cell-based, FAP fluorogen, flow cytometry, cherry pick 1 (AID 588763); type: functional
[8] = molecular target: T1, SUMO-activating enzyme (Homo sapiens, UniProt Q9UBT2); assay: SUMOylation inhibitor hit validation, confirmation, SUMOylation inhibitor project, biochemical, AlphaScreen (AID 2018); type: functional
[9] = molecular target: T1, SUMO-activating enzyme; assay: inhibitors of in vitro SUMOylation cascade, primary screen, biochemical, HTRF, uHTS (AID 2006); type: protein-complex assay
[10] = molecular target: Induced myeloid leukemia cell differentiation protein Mcl-1 (Homo sapiens, UniProt Q07820); type: functional
[11] = molecular target: T2, Replicative DNA helicase DnaB (Mycobacterium tuberculosis, UniProt P9WMR3); assay: DnaB intein splicing inhibitors, dose response, biochemical, cell-free fluorescence (AID 449749); type: functional
T2 sequence (P9WMR3 whole entry): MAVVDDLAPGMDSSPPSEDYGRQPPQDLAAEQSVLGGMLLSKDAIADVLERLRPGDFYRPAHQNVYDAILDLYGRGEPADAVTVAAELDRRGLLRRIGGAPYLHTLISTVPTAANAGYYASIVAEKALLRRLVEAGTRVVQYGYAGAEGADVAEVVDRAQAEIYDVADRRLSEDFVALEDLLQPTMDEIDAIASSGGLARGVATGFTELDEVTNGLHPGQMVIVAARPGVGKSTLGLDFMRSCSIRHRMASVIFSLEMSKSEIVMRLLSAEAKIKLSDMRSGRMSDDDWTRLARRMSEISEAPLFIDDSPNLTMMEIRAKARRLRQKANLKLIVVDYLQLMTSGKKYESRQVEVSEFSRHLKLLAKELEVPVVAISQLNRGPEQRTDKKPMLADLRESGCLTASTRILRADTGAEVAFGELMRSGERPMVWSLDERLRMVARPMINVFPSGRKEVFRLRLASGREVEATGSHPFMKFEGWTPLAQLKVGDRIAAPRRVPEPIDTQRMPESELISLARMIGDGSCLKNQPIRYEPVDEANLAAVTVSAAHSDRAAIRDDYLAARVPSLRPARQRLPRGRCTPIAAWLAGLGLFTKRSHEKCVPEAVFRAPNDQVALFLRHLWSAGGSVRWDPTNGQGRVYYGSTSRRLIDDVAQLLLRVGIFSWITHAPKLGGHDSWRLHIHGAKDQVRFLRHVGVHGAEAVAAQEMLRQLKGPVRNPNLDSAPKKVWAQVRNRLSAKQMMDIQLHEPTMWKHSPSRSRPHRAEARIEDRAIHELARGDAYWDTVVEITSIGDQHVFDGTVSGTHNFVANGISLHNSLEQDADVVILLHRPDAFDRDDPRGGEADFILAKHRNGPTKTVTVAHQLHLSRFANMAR

[12] = molecular target: T3, Protein RecA (Mycobacterium tuberculosis, UniProt P9WHJ3); assay: Fluorescence Cell-Free Homogeneous Dose Retest to Identify Inhibitors of RecA-Intein Splicing Activity. [Related pubchem assays (depositor defined):AID2097, AID2223, AID489010, AID492950]; type: functional
T3 sequence (P9WHJ3 whole entry): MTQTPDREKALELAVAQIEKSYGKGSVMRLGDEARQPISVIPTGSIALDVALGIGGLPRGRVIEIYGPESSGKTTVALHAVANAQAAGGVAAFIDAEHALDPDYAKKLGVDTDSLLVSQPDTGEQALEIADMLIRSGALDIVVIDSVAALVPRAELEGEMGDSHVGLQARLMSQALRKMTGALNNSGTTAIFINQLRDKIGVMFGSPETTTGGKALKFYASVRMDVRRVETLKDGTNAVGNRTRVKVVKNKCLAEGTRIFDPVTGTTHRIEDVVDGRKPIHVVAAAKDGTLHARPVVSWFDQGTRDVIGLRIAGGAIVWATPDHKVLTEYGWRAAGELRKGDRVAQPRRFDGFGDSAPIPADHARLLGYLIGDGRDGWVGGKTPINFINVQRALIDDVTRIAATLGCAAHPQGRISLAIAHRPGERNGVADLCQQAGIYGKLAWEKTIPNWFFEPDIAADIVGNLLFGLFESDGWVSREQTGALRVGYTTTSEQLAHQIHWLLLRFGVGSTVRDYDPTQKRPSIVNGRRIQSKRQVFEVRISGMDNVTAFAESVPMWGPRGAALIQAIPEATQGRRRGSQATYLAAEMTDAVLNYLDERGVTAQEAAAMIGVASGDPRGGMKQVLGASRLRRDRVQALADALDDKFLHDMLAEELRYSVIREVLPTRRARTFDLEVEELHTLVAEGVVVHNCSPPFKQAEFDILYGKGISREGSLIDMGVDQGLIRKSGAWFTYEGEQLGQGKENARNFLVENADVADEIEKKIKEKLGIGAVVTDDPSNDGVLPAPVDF

[13] = THP-1 cell cytotoxicity, dose response, cytotoxicity control for Vif-APOBEC3G degradation inhibitor project, THP-1 cells (AID 1117359); type: functional; settings: Human immunodeficiency virus 1, THP-1
[14] = A cytotoxicity screen of small molecule inhibitors of the PhoP region in Salmonella typhi identified in the primary screen. [Related pubchem assays: 1850, 1864, 1985 ]; type: functional
[15] = molecular target: Glucose-6-phosphate 1-dehydrogenase (Homo sapiens, UniProt P11413); assay: human G6PD enzyme inhibitors, dose response, selectivity assay for P. falciparum G6PD inhibitor project, biochemical, fluorescence (AID 504792); type: functional
[16] = molecular target: DNA dC->dU-editing enzyme APOBEC-3G (Homo sapiens, UniProt Q9HC16); assay: Dose Response confirmation of small molecule APOBEC3G DNA Deaminase Inhibitors via a fluorescence-based single-stranded DNA deaminase assay. [Related pubchem assays (depositor defined):AID493012, AID493028]; type: functional
[17] = Luminescence Cell-Based Dose Retest to Confirm Inhibitors of Cancer Stem Cells. [Related pubchem assays (depositor defined):AID2717, AID2721]; type: functional; settings: Homo sapiens
[18] = cytotoxicity in HEK-293T cells, dose response, cytotoxicity control for TCR NF-kB inhibitor project, luminescence, T-cell screen hits (AID 489026); type: functional, cell-based;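 also: cells exposed to compound about 14 hours before the viability readout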
[19] = test system: INS1; assay: beta cell apoptosis inhibitors, cytokine rescue, dose response, luminescence, retest (AID 449756); type: functional, cell-based; settings: Rattus norvegicus;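 also: cell death triggered by IL-1 beta plus TNF-alpha plus IFN-gamma mixture; protective hits raise ATP signal compared with cytokine alone wells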
[20] = test system: Vero; assay: cells; type: functional; settings: Chlorocebus sabaeus
[21] = molecular target: T4, Heat shock factor protein 1 (Mus musculus, UniProt P38532); assay: HSF1 potentiators in luciferase reporter cells, confirmation, cell-based, NIH3T3, luminescence, dose retest (AID 435004); type: functional;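 also: stress induced by proteasome inhibitor MG132 added 30 min after compound; luciferase reporter driven by HSF1 response element in NIH3T3 cells; actives raise luminescence as potentiators of the MG132 stress response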
T4 sequence (P38532 whole entry): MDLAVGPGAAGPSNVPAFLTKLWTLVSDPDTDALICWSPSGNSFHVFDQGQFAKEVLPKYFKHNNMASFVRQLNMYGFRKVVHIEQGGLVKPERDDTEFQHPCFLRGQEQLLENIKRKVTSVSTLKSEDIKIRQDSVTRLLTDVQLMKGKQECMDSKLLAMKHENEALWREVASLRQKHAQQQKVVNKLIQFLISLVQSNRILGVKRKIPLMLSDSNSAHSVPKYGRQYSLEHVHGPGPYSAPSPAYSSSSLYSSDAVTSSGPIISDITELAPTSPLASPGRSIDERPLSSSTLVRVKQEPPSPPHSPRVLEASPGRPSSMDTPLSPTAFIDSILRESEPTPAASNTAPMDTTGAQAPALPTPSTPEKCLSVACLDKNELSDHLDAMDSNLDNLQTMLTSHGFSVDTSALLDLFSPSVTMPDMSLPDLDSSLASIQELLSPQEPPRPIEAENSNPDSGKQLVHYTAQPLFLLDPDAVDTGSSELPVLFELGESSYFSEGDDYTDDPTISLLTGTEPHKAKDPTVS

[22] = molecular target: T5, Cytochrome P450 1A2 (Homo sapiens, UniProt P05177);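 also: PubChem cytochrome P450 panel assay, CYP1A2 panel member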
T5 sequence (P05177 whole entry): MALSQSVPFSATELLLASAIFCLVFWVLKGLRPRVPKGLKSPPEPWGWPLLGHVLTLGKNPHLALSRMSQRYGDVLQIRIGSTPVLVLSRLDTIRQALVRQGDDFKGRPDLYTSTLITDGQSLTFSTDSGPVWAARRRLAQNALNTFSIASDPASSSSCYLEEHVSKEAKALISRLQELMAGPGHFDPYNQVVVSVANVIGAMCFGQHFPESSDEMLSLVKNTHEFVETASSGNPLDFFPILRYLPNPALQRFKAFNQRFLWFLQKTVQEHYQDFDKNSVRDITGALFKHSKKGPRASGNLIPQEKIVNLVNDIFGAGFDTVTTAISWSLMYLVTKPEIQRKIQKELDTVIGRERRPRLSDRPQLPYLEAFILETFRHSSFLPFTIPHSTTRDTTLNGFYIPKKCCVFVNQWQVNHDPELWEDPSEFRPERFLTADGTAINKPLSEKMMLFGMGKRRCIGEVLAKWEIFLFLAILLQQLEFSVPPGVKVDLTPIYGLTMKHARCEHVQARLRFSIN

[23] = molecular target: Cytochrome P450 3A4 (Homo sapiens, UniProt P08684);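 also: CYP3A4 tested as one member of a cytochrome P450 panel screen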

Dual specificity protein kinase CLK1, sequence (P49759 whole entry): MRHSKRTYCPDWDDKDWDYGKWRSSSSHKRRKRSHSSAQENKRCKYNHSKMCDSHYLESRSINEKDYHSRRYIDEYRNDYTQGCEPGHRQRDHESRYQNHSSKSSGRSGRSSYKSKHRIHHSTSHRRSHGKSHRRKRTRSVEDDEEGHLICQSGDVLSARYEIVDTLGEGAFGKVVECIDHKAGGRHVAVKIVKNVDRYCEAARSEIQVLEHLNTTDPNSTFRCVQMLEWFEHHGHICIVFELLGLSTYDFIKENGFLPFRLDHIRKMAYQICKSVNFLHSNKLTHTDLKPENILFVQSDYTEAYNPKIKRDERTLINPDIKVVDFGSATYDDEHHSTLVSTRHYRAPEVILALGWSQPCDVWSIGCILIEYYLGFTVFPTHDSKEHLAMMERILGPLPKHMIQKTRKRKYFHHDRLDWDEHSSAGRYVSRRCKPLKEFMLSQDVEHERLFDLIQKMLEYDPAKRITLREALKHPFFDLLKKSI
Cytochrome P450 2C19, sequence (P33261 whole entry): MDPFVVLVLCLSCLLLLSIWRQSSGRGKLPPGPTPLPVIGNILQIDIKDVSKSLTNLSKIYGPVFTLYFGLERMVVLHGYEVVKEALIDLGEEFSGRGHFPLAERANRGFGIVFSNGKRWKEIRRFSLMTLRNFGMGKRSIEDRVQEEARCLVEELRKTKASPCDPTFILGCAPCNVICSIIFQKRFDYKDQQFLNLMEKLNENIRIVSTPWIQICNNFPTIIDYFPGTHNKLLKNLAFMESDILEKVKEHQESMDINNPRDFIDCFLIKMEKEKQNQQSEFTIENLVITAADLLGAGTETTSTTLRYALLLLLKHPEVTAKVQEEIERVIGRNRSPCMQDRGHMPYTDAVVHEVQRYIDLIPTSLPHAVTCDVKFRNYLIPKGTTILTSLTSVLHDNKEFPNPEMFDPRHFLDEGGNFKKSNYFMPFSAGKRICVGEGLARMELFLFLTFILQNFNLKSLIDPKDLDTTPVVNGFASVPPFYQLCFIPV
Voltage-gated inwardly rectifying potassium channel KCNH2, sequence (Q12809 whole entry): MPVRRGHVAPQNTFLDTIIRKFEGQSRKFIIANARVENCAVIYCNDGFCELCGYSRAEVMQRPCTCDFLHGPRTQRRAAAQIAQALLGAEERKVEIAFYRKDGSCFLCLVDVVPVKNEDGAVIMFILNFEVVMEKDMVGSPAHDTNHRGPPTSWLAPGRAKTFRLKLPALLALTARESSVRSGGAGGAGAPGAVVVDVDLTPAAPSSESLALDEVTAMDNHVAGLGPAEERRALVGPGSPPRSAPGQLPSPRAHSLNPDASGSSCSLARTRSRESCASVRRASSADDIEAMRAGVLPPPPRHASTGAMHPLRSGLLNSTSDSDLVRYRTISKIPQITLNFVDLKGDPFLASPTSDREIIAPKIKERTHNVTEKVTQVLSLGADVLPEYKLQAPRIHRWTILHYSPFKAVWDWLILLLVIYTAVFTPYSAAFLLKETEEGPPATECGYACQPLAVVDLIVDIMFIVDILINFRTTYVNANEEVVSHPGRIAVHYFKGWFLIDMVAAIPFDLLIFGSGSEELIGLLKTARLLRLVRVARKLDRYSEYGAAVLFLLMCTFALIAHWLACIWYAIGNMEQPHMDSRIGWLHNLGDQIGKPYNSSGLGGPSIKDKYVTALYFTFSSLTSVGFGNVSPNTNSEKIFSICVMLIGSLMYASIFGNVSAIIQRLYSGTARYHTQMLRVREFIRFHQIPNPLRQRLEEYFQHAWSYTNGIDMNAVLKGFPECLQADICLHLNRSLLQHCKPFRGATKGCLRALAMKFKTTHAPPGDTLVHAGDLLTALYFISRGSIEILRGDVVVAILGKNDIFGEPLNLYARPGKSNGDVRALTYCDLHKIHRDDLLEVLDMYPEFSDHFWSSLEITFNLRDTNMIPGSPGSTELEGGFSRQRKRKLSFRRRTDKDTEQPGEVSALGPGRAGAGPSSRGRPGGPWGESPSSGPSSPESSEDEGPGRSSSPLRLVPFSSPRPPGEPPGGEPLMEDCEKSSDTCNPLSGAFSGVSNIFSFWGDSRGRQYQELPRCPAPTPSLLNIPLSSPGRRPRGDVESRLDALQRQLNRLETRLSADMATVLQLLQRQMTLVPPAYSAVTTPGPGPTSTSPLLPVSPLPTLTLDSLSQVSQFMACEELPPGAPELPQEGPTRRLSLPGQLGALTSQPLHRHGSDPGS
Cytochrome P450 2D6, sequence (P10635 whole entry): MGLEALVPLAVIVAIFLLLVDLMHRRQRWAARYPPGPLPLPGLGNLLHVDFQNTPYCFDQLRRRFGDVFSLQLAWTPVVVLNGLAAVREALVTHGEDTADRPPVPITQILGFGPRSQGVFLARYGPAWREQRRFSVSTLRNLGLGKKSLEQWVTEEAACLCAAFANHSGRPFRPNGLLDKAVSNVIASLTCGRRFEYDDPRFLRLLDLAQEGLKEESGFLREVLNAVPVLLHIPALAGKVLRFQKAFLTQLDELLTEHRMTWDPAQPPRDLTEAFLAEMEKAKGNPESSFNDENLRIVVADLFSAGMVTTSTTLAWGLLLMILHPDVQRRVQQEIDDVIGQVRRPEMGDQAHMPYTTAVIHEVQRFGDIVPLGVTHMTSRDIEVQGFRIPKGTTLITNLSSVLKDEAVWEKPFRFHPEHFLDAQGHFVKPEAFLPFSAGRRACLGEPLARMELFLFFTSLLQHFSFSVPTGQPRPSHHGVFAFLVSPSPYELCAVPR
Beta-2 adrenergic receptor, sequence (P07550 whole entry): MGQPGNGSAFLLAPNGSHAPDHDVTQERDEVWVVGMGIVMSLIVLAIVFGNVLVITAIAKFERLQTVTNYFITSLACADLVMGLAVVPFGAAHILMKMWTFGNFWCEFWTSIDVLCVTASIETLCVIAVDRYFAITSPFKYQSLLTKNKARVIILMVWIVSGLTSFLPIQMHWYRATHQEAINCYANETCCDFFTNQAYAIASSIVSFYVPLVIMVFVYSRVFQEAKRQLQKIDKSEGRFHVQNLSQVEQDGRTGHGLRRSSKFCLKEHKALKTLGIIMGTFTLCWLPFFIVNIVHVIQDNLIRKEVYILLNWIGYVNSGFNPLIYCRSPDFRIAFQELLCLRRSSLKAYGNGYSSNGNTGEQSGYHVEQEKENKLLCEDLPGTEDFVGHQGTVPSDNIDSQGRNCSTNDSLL
T1 sequence (Q9UBE0 whole entry): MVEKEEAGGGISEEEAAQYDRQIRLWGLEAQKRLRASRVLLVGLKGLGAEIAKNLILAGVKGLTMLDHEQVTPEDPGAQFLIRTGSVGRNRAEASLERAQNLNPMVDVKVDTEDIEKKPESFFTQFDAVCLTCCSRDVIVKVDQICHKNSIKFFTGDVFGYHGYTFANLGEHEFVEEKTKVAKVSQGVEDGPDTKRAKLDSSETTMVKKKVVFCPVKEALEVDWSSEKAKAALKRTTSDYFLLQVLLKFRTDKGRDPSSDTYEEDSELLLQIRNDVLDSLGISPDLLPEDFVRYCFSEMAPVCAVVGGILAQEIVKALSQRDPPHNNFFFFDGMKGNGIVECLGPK
T1 sequence (Q9UBT2 whole entry): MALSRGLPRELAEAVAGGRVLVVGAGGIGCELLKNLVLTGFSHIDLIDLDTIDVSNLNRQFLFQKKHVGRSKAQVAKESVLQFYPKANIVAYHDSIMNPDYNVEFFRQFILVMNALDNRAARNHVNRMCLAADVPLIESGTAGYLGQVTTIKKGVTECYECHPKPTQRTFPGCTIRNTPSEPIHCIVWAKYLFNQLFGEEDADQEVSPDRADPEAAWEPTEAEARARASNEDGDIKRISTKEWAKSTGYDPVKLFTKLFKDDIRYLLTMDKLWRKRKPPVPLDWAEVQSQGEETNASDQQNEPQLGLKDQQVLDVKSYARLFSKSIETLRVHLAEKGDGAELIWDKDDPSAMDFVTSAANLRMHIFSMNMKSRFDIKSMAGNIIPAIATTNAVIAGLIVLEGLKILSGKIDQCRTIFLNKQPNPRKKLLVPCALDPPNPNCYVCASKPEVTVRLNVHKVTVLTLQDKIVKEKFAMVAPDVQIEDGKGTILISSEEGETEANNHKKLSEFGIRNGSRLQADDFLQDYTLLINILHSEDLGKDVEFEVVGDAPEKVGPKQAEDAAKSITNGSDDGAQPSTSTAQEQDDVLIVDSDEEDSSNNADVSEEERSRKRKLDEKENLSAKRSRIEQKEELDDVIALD
Glucose-6-phosphate 1-dehydrogenase, sequence (P11413 whole entry): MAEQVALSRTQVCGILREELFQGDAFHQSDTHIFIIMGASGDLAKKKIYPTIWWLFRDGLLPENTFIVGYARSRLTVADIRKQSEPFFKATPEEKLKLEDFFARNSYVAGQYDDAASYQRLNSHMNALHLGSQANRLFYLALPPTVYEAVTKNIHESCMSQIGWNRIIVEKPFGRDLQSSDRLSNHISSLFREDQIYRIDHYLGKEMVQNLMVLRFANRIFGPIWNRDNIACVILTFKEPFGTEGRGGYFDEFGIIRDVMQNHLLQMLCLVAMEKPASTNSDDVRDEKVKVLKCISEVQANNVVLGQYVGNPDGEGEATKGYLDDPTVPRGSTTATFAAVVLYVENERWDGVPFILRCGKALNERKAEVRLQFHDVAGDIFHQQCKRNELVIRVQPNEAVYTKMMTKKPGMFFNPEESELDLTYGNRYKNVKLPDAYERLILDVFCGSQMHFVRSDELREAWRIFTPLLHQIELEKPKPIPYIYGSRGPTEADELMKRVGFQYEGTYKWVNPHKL
Induced myeloid leukemia cell differentiation protein Mcl-1, sequence (Q07820 whole entry): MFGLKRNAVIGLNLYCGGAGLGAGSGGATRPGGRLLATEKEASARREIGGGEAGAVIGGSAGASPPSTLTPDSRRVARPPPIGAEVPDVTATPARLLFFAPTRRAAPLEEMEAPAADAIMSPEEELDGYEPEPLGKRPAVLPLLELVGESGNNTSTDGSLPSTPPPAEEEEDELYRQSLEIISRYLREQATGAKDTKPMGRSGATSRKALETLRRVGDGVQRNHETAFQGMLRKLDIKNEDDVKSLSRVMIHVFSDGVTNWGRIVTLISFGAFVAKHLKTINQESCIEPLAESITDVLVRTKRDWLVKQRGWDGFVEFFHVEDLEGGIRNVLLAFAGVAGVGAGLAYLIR

Structure (SMILES): O=C(CSc1nnnn1-c1ccc(O)cc1)Nc1ccc(N2CCOCC2)c(Cl)c1
- AC50 [1]: 8.48 µM (active)
- AC50 [2]: 8.12 µM (active)
- IC50 [3]: 0.488 µM (active)

Structure (SMILES): Cc1ccc(C(=O)N/N=C/c2ccc(S(=O)(=O)[O-])o2)c(Cl)c1.[Na+]
- AC50 [4]: inconclusive
- AC50 [5]: inconclusive

Structure (SMILES): c1ccc(SCCSc2ccccc2)cc1
- AC50 [6]: 28.2 µM (inconclusive)

Structure (SMILES): CSc1ccc(C(=O)C2CCCN(Cc3cccn3-c3cccnc3)C2)cc1 (centres undefined)
- EC50 [7]: 0.566 µM (active)

Structure (SMILES): CCc1ccc(S(=O)(=O)/N=C2\C=CC(=O)c3ccccc32)cc1
- IC50 [8]: 4.93 µM (active)
- IC50 [9]: 35.4 µM (active)
- IC50 [10]: 3.11 µM (active)
- AC50 [11]: 1.15 µM (active)
- EC50 [12]: 0.643 µM (active)
- CC50 [13]: 23.7 µM (active)

Structure (SMILES): CC(=O)Nc1ccc(S(=O)(=O)NNc2cccc(C)c2)cc1
- EC50 [14]: > 50 µM (active)
- IC50 [15]: > 80 µM (inactive)
- IC50 [16]: 35.9 µM (active)

Structure (SMILES): c1nc(NCC2CCCC2)c2cc(-c3ccc4c(c3)OCO4)ccc2n1
- AC50 [1]: 0.00361 µM (active)

Structure (SMILES): CC(C)(C)c1cc(C=C(C#N)C#N)cc(C(C)(C)C)c1O [TYRPHOSTIN A9]
- AC50 [17]: 1.3 µM (active)
- IC50 [18]: > 80 µM (inactive)
- AC50 ([4]; read-out: AC50): 7.94 µM (inconclusive)
- AC50 [19]: 0.928 µM (active)
- CC50 [20]: 1.37 µM (active)
- AC50 [6]: 15.8 µM (inconclusive)

Structure (SMILES): COc1cc(-c2nnc(SC/C=C/c3ccccc3)n2N)cc(OC)c1OC
- EC50 [21]: > 260 µM (inconclusive)
- AC50 [22]: 14.1 µM (inconclusive)
- AC50 [23]: 31.6 µM (inconclusive)
- AC50 [5]: inconclusive

Structure (SMILES): Clc1ccc(CNc2nccc(-c3ccc4c(c3)OCO4)n2)cc1Cl
- AC50 [1]: < 0.00195 µM (active)

Structure (SMILES): NC(=O)CC(NC(=O)Cc1ccc(Br)cc1)c1ccc(N2CCN(c3ccccn3)CC2)c([N+](=O)[O-])c1 (centres undefined)
- EC50 [7]: 12.2 µM (inactive)
